Results as given in patent US9526782B2, “Pharmaceutical compositions comprising inhibitors of zinc-ZIP8-MTF1 as active ingredients for preventing or treating a joint disease” (GWANGJU INSTITUTE OF SCIENCE AND TECHNOLOGY, priority 2014, dated 2016).

Key:
[1] = target: T1, MTF1 (Mus musculus, UniProt Q07243); experiment: MTF1 activity reporter gene assay and immunostaining in chondrocytes; format: cell-based
T1 construct: endogenous in cells; host or cells: primary mouse articular chondrocytes
Experimental: The MTF1 reporter gene assay kit was obtained from SABiosciences. Chondrocytes were transfected for 6 hours with a metal response element (MRE) reporter construct and a constitutive Renilla luciferase construct using Lipofectamine 2000 (Invitrogen). Transfected cells were infected with Ad-Mtf1 or Ad-Zip8 for 2 hours or treated with metal ions. Cells were harvested 24 hours after treatment, and firefly luciferase and Renilla luciferase activities were measured using a Dual Luciferase Assay System (Promega). […] MTF1 was detected by immunofluorescence microscopy. Images were acquired using a fluorescence microscope, and at least 200 cells were examined in multiple fields per condition to quantify the percentage of nuclear MTF1-positive cells.

[2] = system: DMM-operated mice; experiment: DMM surgery-induced OA with Zn^2+ diets or intraperitoneal ZnCl2; format: in vivo, mouse; conditions: intraperitoneal, 5 mg/kg body weight twice a week, 6 weeks after surgery
Experimental: FIG. 6m represents that knee joint sections were prepared from sham- and DMM-operated mice that were fed low-Zn^2+ (<0.5 mg zinc/kg), adequate-Zn^2+ (30 mg zinc/kg), or high-Zn^2+ (300 mg zinc/kg) diets. Cartilage destruction was determined by safranin-O/hematoxylin staining and quantified (n=10).
FIG. 6n represents that sham- and DMM-operated mice were intraperitoneally injected with PBS or ZnCl2 (5 mg/kg body weight) twice a week until they are sacrificed 6 weeks after surgery. Knee joint sections were stained with safranin-O/hematoxylin and cartilage destruction was determined (n=10). […]
Human OA cartilage was frozen, sectioned at 10-μm thickness, and fixed in paraformaldehyde. Sulfate proteoglycan was detected with alcian blue staining. Human ZIP8 was detected by immunostaining. […] Sections were deparaffinized in xylene, hydrated with graded ethanol, and stained with safranin-O. Cartilage destruction was scored by two blinded observers using the OARSI grading system (Glasson et al., 2010). Synovitis was determined by safranin-O and hematoxylin staining, and synovial inflammation (grade 0-3) was scored as described previously (Yang et al., 2010). Osteophyte development was identified by safranin-O staining, and osteophyte maturity was quantified as described previously (Oh et al., 2012). […]

[3] = system: Mt1 and Mt2; experiment: mRNA and protein levels of MT1 and MT2 in chondrocytes; format: cell-based, mouse; conditions: primary cultured chondrocytes
Excerpt: (§1) Total RNA was extracted from primary cultured chondrocytes using the TRI reagent (Molecular Research Center Inc.). For the isolation of RNA from knee joints, cartilage tissues were scraped with a blade to remove cartilage, and RNA was isolated using the TRI reagent and Purelink RNA mini kit (Ambion). The RNA was reverse transcribed, and the resulting cDNA was amplified by PCR.

[4] = system: matrix-degrading enzymes (MMP3, MMP9, MMP12, MMP13, and ADAMTS5); experiment: mRNA (qRT-PCR) and protein (Western blotting) levels of matrix-degrading enzymes in chondrocytes; format: cell-based, mouse
Experimental: Adenoviruses expressing mouse Zip8 (Ad-Zip8) and Mtf1 (Ad-Mtf1) were purchased from Vector Biolabs. Mouse articular chondrocytes were cultured for 2 days, infected with empty virus (Ad-C), Ad-Zip8, or Ad-Mtf1 for 2 hours at the indicated multiplicity of infection (MOI), and cultured for 24 hours, followed by further analyses.
as §1
Transcript levels were quantified by qRT-PCR. siRNAs targeting Zip8 and Mtf1 were obtained from Dharmacon and transfected using Lipofectamine 2000. Non-targeting (scrambled) siRNA was used as a negative control. Chondrocytes were transfected by incubating for 6 hours with siRNA and Lipofectamine 2000 (Invitrogen), and infected with adenoviruses as described above. Therapeutic antibodies for obstruction of ZIP8 function were purchased from Santa Cruz Biotechnology and MyBioSource Company, and treated in chondrocytes for 24 hours.
Total cell lysates were prepared in lysis buffer (150 mM NaCl, 1% NP-40, 50 mM Tris, 5 mM NaF) and used to detect cellular proteins (ZIP8, MTF1, and ERK). Secreted proteins (MMP3, MMP13, and ADAMTS5) were detected after trichloroacetic acid (TCA) precipitation from 900 μl of serum-free conditioned medium. All lysis buffers contained a cocktail of protease inhibitors and phosphatase inhibitors (Roche).

[5] = Ad-Zip8 chondrocytes, TPEN 1 μM pre-incubated with 1 μM metal ion

T1 sequence (Q07243 whole entry): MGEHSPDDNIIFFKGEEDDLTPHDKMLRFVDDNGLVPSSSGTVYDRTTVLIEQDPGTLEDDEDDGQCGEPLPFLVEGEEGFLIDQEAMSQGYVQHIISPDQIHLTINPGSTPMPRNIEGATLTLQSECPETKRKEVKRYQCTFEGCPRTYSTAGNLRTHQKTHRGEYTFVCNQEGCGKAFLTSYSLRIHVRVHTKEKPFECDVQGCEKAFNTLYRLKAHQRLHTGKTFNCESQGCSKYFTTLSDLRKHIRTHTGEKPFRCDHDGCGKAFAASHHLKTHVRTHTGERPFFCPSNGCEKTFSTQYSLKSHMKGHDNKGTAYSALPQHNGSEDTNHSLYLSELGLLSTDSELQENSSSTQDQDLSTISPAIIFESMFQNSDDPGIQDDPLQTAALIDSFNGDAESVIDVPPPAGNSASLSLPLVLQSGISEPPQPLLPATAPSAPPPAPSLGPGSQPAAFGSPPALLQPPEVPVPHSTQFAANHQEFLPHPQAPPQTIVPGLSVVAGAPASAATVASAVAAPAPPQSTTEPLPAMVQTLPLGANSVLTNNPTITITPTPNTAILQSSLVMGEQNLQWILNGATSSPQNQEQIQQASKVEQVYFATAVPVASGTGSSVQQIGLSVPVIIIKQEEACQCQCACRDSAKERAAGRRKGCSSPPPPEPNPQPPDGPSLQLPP

With [Cl-].[Cl-].[Zn+2] [ZnCl2] the “inhibitory effects of TPEN on MTF1 transcriptional activity, effect of pre-incubation of TPEN with the metal salt” value [1, 5] was “abolished”, the “nuclear localization of MTF1” value ([1]; chondrocytes) was “most effective” and the “MTF1 transcriptional activity, effect of the substance itself” value ([1]; chondrocytes, reporter gene assay) was “most effective”. The DMM-induced cartilage destruction [2] was “augmented”, the “expression of Mt1 and Mt2” value [3] was “significantly increased” and the “inhibitory effects of TPEN on the ZIP8-mediated expression of matrix-degrading enzymes, effect of pre-incubation of TPEN with the metal salt” value [4, 5] was “effectively abolished”. The “expression of matrix-degrading enzymes caused by the substance itself” value ([4]; chondrocytes, metal salts 100 μM (CdCl2 1 μM)) was “up-regulated”.
